Experiments:
E. coli = assay: MIC of imipenem, ertapenem and meropenem; type: cell-based, Escherichia coli
E. cloacae = assay: MIC of imipenem, ertapenem and meropenem; type: cell-based, Enterobacter cloacae
P. stuartii = assay: MIC of imipenem, ertapenem and meropenem; type: cell-based, Providencia stuartii
C. freundii = assay: MIC of imipenem, ertapenem and meropenem; type: cell-based, Citrobacter freundii
C. koseri = assay: MIC of imipenem, ertapenem and meropenem; type: cell-based
E. aerogenes = assay: MIC of imipenem, ertapenem and meropenem; type: cell-based, Enterobacter aerogenes
S. typhimurium = assay: MIC of imipenem, ertapenem and meropenem; type: cell-based
enterobacterial isolates = assay: MIC of imipenem, ertapenem and meropenem (groups of isolates, other species); type: cell-based, Enterobacteriaceae

Measured: MIC

C[C@@H](O)[C@H]1C(=O)N2C(C(=O)O)=C(S[C@@H]3CN[C@H](C(=O)N(C)C)C3)[C@H](C)[C@H]12 [MEM, meropenem]
0.032 µg/mL: E. cloacae; E. cloacae 5434 (wild type) | E. cloacae; E. cloacae 5434, (wild type), non-carbapenemase producer | E. cloacae; E. cloacae 7746, (wild type), non-carbapenemase producer | S. typhimurium; S. typhimurium 1081 (CTX-M-1) | S. typhimurium; S. typhimurium 1081, CTX-M-1, non-carbapenemase producer | S. typhimurium; strain S. typhimurium 1081, CTX-M-1, non-carbapenemase producer
0.016 µg/mL: E. coli; E. coli 1008 (TEM-1 + CTX-M-1) | E. coli; E. coli 1008, CTX-M-1 + TEM-1, non-carbapenemase producer | E. coli; E. coli 1020, CTX-M-1 + TEM-1, non-carbapenemase producer | E. coli; E. coli 1023, CTX-M-2 + TEM-1, non-carbapenemase producer | E. coli; E. coli 1033, CTX-M-15, non-carbapenemase producer | E. coli; E. coli 1034 (TEM-1 + SHV-38) | E. coli; E. coli 1034, TEM-1 + SHV-38, non-carbapenemase producer | E. coli; E. coli 1048 (TEM-1 + SHV-2a) | E. coli; E. coli 1048, TEM-1 + SHV-2a, non-carbapenemase producer | E. coli; E. coli 1082 (TEM-1) | E. coli; E. coli 1082, TEM-1, non-carbapenemase producer | E. coli; E. coli 10121 (CTX-M-2) | E. coli; E. coli 10121, CTX-M-2, non-carbapenemase producer | E. coli; E. coli 10122, CTX-M-1 + TEM-1, non-carbapenemase producer | E. coli; strain E. coli 1008, TEM-1 + CTX-M-1, non-carbapenemase producer | E. coli; strain E. coli 1034, TEM-1 + SHV-38, non-carbapenemase producer | E. coli; strain E. coli 1048, TEM-1 + SHV-2a, non-carbapenemase producer | E. coli; strain E. coli 10121, CTX-M-2, non-carbapenemase producer | E. cloacae; E. cloacae 1012, TEM-1 + SHV-12, non-carbapenemase producer | E. cloacae; E. cloacae 1027, TEM-1 + CTX-M-15, non-carbapenemase producer | C. freundii; C. freundii 7767 (wild type) | C. freundii; C. freundii 7767, (wild type), non-carbapenemase producer | E. aerogenes; E. aerogenes 1009, TEM-24, non-carbapenemase producer
0.094 µg/mL: E. cloacae; E. cloacae 1019, TEM-1, non-carbapenemase producer, overexpressed AmpC | E. cloacae; E. cloacae 10111 (TEM-1 + CTX-M-15) | E. cloacae; E. cloacae 10111, TEM-1 + CTX-M-15, non-carbapenemase producer, overexpressed AmpC | E. cloacae; strain E. cloacae 10111, TEM-1 + CTX-M-15, non-carbapenemase producer
3 µg/mL: E. coli; E. coli TWA, IMP-8 + SHV-12
0.008 µg/mL: E. coli; E. coli 6252, (wild type), non-carbapenemase producer
>32 µg/mL: E. cloacae; E. cloacae 1008029, VIM-1+ CTX-M-3 | E. cloacae; E. cloacae 1008079, IMP-1 | C. freundii; C. freundii STE (NDM-1 + OXA-1 + OXA-9 + OXA-10 + CTX-M-15 + TEM-1) | C. freundii; C. freundii STE, NDM-1 + TEM-1 + CTX-M-15 + VIM-4 + OXA-1 + OXA-9 + OXA-10 + OXA-181 | enterobacterial isolates; S. marcescens 0911033, IMP-1 | enterobacterial isolates; S. marcescens 1008091, VIM-1+ CTX-M-15 | enterobacterial isolates; S. marcescens C7052, KPC-2 + TEM-1 + SHV-12 | enterobacterial isolates; S. marcescens D6403, KPC-2 + TEM-1
1.5 µg/mL: E. cloacae; E. cloacae 501, OXA-48 + TEM-1 + CTX-M-15 | E. cloacae; E. cloacae HPTU (KPC-2 + TEM-1 + SHV-11) | E. cloacae; E. cloacae HPTU, KPC-2 + TEM-1 + SHV-11 | E. cloacae; strain E. cloacae HPTU, KPC-2 + TEM-1 + SHV-11 | P. stuartii; P. stuartii NDM (NDM-1 + OXA-1 + CMY-6) | P. stuartii; P. stuartii PS1 (NDM-1 + CMY-6 + OXA-1) | P. stuartii; P. stuartii PS1, NDM-1 + CMY-6 + OXA-1 | P. stuartii; strain P. stuartii PS1, NDM-1 + CMY-6 + OXA-1
0.064 µg/mL: E. cloacae; E. cloacae 1072, TEM-1 + OXA-1, non-carbapenemase producer, overexpressed AmpC
8 µg/mL: E. coli; E. coli ALL (NDM-1 + OXA-1 + OXA-2 + CTX-M-15 + TEM-1) | E. coli; E. coli ALL, NDM-1 + TEM-1 + CTX-M-15 + OXA-1 + OXA-2 | E. coli; E. coli OM20, NDM-1 + TEM-1 + CTX-M-15
12 µg/mL: E. coli; E. coli GEN (NDM-1 + OXA-1 + CMY-30 + TEM-1) | E. coli; E. coli GEN, NDM-1 + TEM-1 + CMY-30 + OXA-1
0.012 µg/mL: E. coli; E. coli 6367 (wild type) | E. coli; E. coli 6367, (wild type), non-carbapenemase producer | E. coli; E. coli E14, CTX-M-14, non-carbapenemase producer | E. coli; E. coli ECA, ACC-1, non-carbapenemase producer | E. coli; E. coli EVB, VEB-1, non-carbapenemase producer | E. coli; E. coli FOR, CTX-M-15, non-carbapenemase producer | E. coli; E. coli MET, Chromosome-encoded extended-spectrum cephalosporinase, non-carbapenemase producer | E. coli; E. coli SYD, CMY-2, non-carbapenemase producer | E. coli; strain E. coli ECA, ACC-1, non-carbapenemase producer | E. coli; strain E. coli EVB, VEB-1, non-carbapenemase producer | E. coli; strain E. coli FOR, CTX-M-15, non-carbapenemase producer | E. coli; strain E. coli MET, Chromosome-encoded extended-spectrum cephalosporinase, non-carbapenemase producer | E. coli; strain E. coli SYD, CMY-2, non-carbapenemase producer | E. cloacae; E. cloacae 7725, (wild type), non-carbapenemase producer
0.75 µg/mL: E. coli; E. coli ZAN, OXA-48 + TEM-1 + CTX-M-14
4 µg/mL: E. coli; E. coli 1008077, VIM-1+ TEM-1 + CTX-M-15 | E. coli; E. coli DIH (VIM-19) | E. coli; E. coli DIH, VIM-19 | E. cloacae; E. cloacae 1008187, IMP-1 + CTX-M-15
0.19 µg/mL: E. coli; E. coli AME (OXA-48 + CTX-M-24) | E. coli; E. coli AME, OXA-48 + CTX-M-24 | E. coli; E. coli BER (OXA-48 + CTX-M-15) | E. coli; E. coli BER, OXA-48 + TEM-1 + CTX-M-15 | E. coli; E. coli BOK (OXA-48 + CTX-M-15) | E. coli; E. coli BOK, OXA-48 + CTX-M-15 | E. coli; E. coli BON (OXA-48 + CTX-M-24 + TEM-1) | E. coli; E. coli BON, OXA-48 + TEM-1 + CTX-M-24 | E. coli; strain E. coli AME, OXA-48 + CTX-M-24 | E. coli; strain E. coli BON, OXA-48 + TEM-1 + CTX-M-24
0.5 µg/mL: E. coli; E. coli DIN, KPC-2 + TEM-1 + OXA-1 | E. coli; E. coli JAP (IMP-1) | E. coli; E. coli JAP, IMP-1 | E. coli; E. coli MAD (VIM-1 + CTX-M-3) | E. coli; E. coli MAD, VIM-1+ CTX-M-3 | E. coli; E. coli PSP (KPC-2) | E. coli; E. coli PSP, KPC-2 + TEM-1 + OXA-1 | E. coli; strain E. coli JAP, IMP-1 | E. cloacae; E. cloacae BEU, OXA-48 + TEM-1 + CTX-M-15 + SHV-12 | E. cloacae; E. cloacae KAR, VIM-1+ SHV-70 | E. cloacae; E. cloacae TAW (IMP-8 + SHV-12) | E. cloacae; E. cloacae TAW, IMP-8 + SHV-12 | E. cloacae; E. cloacae TUR (OXA-48 + SHV-5) | E. cloacae; E. cloacae TUR, OXA-48 + SHV-5 | E. cloacae; strain E. cloacae TAW, IMP-8 + SHV-12 | E. cloacae; strain E. cloacae TUR, OXA-48 + SHV-5
16 µg/mL: E. coli; E. coli AUS (NDM-1 + CTX-M-15 + TEM-1) | E. coli; E. coli AUS, NDM-1 + TEM-1 + CTX-M-15 | E. coli; E. coli IR5 (NDM-1 + CTX-M-15 + TEM-1) | E. coli; E. coli IR5, NDM-1 + TEM-1 + CTX-M-15 | E. cloacae; E. cloacae HMG, KPC-2 + TEM-1
0.12 µg/mL: E. coli; E. coli E14 (CTX-M-14) | E. cloacae; E. cloacae ARF (overexpressed AmpC) | E. cloacae; E. cloacae ARF, Overexpressed AmpC, non-carbapenemase producer | E. cloacae; E. cloacae AZA (overexpressed AmpC) | E. cloacae; E. cloacae AZA, Overexpressed AmpC, non-carbapenemase producer | E. cloacae; E. cloacae BLA (overexpressed AmpC) | E. cloacae; E. cloacae BLA, Overexpressed AmpC, non-carbapenemase producer | E. cloacae; E. cloacae CLO (CTX-M-15) | E. cloacae; E. cloacae CLO, CTX-M-15, non-carbapenemase producer | E. cloacae; E. cloacae CON (overexpressed AmpC) | E. cloacae; E. cloacae CVB (VEB-1) | E. cloacae; E. cloacae CVB, VEB-1, non-carbapenemase producer | E. cloacae; strain E. cloacae BLA, Overexpressed AmpC, non-carbapenemase producer | E. cloacae; strain E. cloacae CLO, CTX-M-15, non-carbapenemase producer | E. cloacae; strain E. cloacae CON, Overexpressed AmpC, non-carbapenemase producer | E. cloacae; strain E. cloacae CVB, VEB-1, non-carbapenemase producer
1 µg/mL: E. coli; E. coli 0404018, VIM-1+ CMY-6 | E. coli; E. coli 1108013, IMP-1 + TEM-1 | E. coli; E. coli HAN (OXA-48 + CTX-M-15) | E. coli; E. coli HAN, OXA-48 + CTX-M-15 | E. coli; E. coli LIL, KPC-2 + TEM-1 + OXA-9 | E. coli; E. coli RIC (NDM-1 + OXA-1 + OXA-10 + CMY-16) | E. coli; E. coli RIC, NDM-1 + CMY-16 + OXA-1 + OXA-10 | E. cloacae; E. cloacae CFVL, KPC-2 + TEM-3 | E. cloacae; E. cloacae TWA, IMP-8 | C. freundii; C. freundii MAU (Overexpressed AmpC + TEM-3) | C. freundii; C. freundii MAU, Overexpressed AmpC + TEM-3, non-carbapenemase producer | C. freundii; strain C. freundii MAU, Overexpressed AmpC + TEM-3, non-carbapenemase producer
0.38 µg/mL: E. coli; E. coli OM3, OXA-48 + TEM-1 + CTX-M-15 | C. koseri; C. koseri ROU, OXA-48 | C. koseri; C. koseri VER (OXA-48) | C. koseri; C. koseri VER, OXA-48 | C. koseri; strain C. koseri VER, OXA-48
0.25 µg/mL: E. coli; E. coli GOG (OXA-48 + CTX-M-24) | E. coli; E. coli HB4 (OmpC-, OmpF-) | E. coli; E. coli HB4, (OmpC-, OmpF-), non-carbapenemase producer, porin deficiency | E. coli; E. coli NAA (OXA-48 + CTX-M-24) | E. coli; E. coli OM22, OXA-48 + TEM-1 + CTX-M-15 | E. coli; E. coli ROB (OXA-48) | E. coli; E. coli ROB, OXA-48 | E. coli; strain E. coli HB4, (OmpC-, OmpF-), non-carbapenemase producer | E. coli; strain E. coli ROB, OXA-48 | E. cloacae; E. cloacae CON, Overexpressed AmpC, non-carbapenemase producer
2 µg/mL: E. coli; E. coli COL (KPC-2) | E. coli; E. coli COL, KPC-2 + TEM-1 + CTX-M-9 | E. coli; E. coli GUE (NDM-1 + OXA-1 + TEM-1) | E. coli; E. coli GUE, NDM-1 + TEM-1 + OXA-1 | E. coli; E. coli MAR (Overexpressed AmpC) | E. coli; E. coli MAR, Overexpressed AmpC, non-carbapenemase producer | E. coli; strain E. coli MAR, Overexpressed AmpC, non-carbapenemase producer | E. cloacae; E. cloacae (KPC-2) | E. cloacae; E. cloacae IR38 (NDM-1 + CTX-M-15) | E. cloacae; E. cloacae IR38, NDM-1 + CTX-M-15
0.023 µg/mL: E. coli; E. coli 1092 (OXA-1) | E. coli; E. coli 1092, OXA-1, non-carbapenemase producer | C. freundii; C. freundii 1003, CTX-M-15 + TEM-1, non-carbapenemase producer | C. freundii; C. freundii 10107 (TEM-1 + SHV-12) | C. freundii; C. freundii 10107, TEM-1 + SHV-12, non-carbapenemase producer | C. freundii; C. freundii 10135 (CTX-M-15) | C. freundii; C. freundii 10135, CTX-M-15, non-carbapenemase producer | C. freundii; strain C. freundii 10107, TEM-1 + SHV-12, non-carbapenemase producer | C. freundii; strain C. freundii 10135, CTX-M-15, non-carbapenemase producer | E. aerogenes; E. aerogenes 1085 (TEM-24) | E. aerogenes; E. aerogenes 1085, TEM-24, non-carbapenemase producer | E. aerogenes; strain E. aerogenes 1085, TEM-24, non-carbapenemase producer
0.125 µg/mL: E. coli; E. coli BOU (OXA-48 + CTX-M-15) | E. coli; E. coli BOU, OXA-48 + CTX-M-15
